Source: patent publication US7105296B2, “Genes encoding Baeyer-Villiger monooxygenases” (E. I. du Pont de Nemours and Company, priority 2001, dated 2006)

How the values were obtained:
Test in all cases: chnB monooxygenase activity by NADPH oxidation at 340 nm
Format in all cases: biochemical
[1] = system: Rhodococcus sp. phi1 chnB monooxygenase; conditions: purified over-expressed enzyme; 1.25 mM substrate; pH 7.5; ND = No Activity Detected
Excerpt: (§1) Following amplification, the chnB gene fragments were cloned into pTrcHis-TOPO TA vectors with either an N-terminal tail or C-terminal tail, as provided by the vector sequence (N-terminal tail for Brevibacterium sp. HCU, Rhodococcus sp. phi1, Rhodococcus sp. phi2, and Arthrobacter sp. BP2 monooxygenases; C-terminal tail for Acinetobacter sp. SE19 and Acidovorax sp. CHX monooxygenases). These vectors were transformed into E. coli, with transformants grown in Luria-Bertani broth supplemented with ampicillin (100 ug/ml) and riboflavin (0.1 ug/ml) at 30° C. until the absorbance at 600 nm (A600) reached 0.5. When the A600 was reached, the temperature was shifted to 16° C.
(§2) The encoded monooxygenase sequences were expressed upon addition of IPTG to the culture media, 30 min after the temperature shift to 16° C. The cultures were grown further overnight (14 hrs) and harvested by centrifugation in a cold centrifuge. The cells were treated with lysozyme (100 mg/ml) for 30 min on ice and sonicated. Following sonication, cell extracts were centrifuged and the supernatant was equilibrated with Ni-NTA resin (Qiagen, Valencia, Calif.) for 1 hr at 4° C. Protein bound resin was washed successively with increasing concentrations of imidazole buffer until the protein of interest was released from the resin. The purified protein was concentrated and the buffer exchanged to remove the imidazole. The protein concentration was adjusted to 1 ug/ml.
(§3) Compounds were selected on the basis of previous observations by van der Werf (J. Biochem. 347:693–701 (2000)) and Miyamoto et al. (Biochimica et Biophysica Acta 1251: 115–124 (1995)) and by searches for the ketone substructure.
(§4) All compounds were obtained from Sigma-Aldrich with only two exceptions. Levoglucosenone was obtained from Toronto Research Chemicals, Inc. and dimethyl-2-piperidone was prepared according to U.S. Pat. No. 6,077,955. For enzyme assays all compounds were dissolved to a concentration of 0.1 M in methanol, with the exceptions of norcamphor (dissolved in ethyl acetate), cyclododecanone, cycltridecanone and cyclopentadecanone (dissolved in propanol), and levoglucosenone (dissolved with acetone).
(§5) The monooxygenase activity of each over-expressed enzyme was assayed spectrophotometrically at 340 nm by monitoring the oxidation of NADPH. Assays were performed in individual quartz cuvettes, with a pathlength of 1 cm. […] An Ultrospec 4000 (Pharmacia Biotech, Cambridge, England) was used to read the absorbance of the samples over a two to ten minute time period and the SWIFT (Pharmacia Biotech) program was used to calculate the slope of the reduction in absorbance over time. For the Brevibacterium sp. […] Monooxygenase activity of each over-expressed enzyme is shown in Table 5, with respect to each ketone substrate. The specific activity values listed are given in umol/min/mg. The notation “ND” refers to “No Activity Detected”.

[2] = system: Acidovorax sp. CHX chnB monooxygenase; conditions: purified over-expressed enzyme; 1.25 mM substrate; pH 7.5; ND = No Activity Detected
Excerpt: as §1, §2, §3, §4, §5

[3] = molecular target: T1, Acinetobacter sp. SE19 chnB monooxygenase (Acinetobacter sp., UniProt Q9F7E4); conditions: purified over-expressed enzyme; 1.25 mM substrate; pH 7.5; ND = No Activity Detected
T1 construct: expression in E. coli of isolated full length BVMO genes from Brevibacterium sp; HCU, Acinetobacter SE19; C-terminal tail provided by the pTrcHis-TOPO vector (C); made in house; host or cells: E. coli
Excerpt: as §1, §2, §3, §4, §5

[4] = system: Arthrobacter sp. BP2 chnB monooxygenase; conditions: purified over-expressed enzyme; 1.25 mM substrate; pH 7.5; ND = No Activity Detected
Excerpt: as §1, §2, §3, §4, §5

[5] = system: Rhodococcus sp. phi2 chnB monooxygenase; conditions: purified over-expressed enzyme; 1.25 mM substrate; pH 7.5; ND = No Activity Detected
Excerpt: as §1, §2, §3, §4, §5

[6] = system: Brevibacterium sp. HCU chnB2 monooxygenase; conditions: purified over-expressed enzyme; 1.25 mM substrate; pH 7.5; rates multiplied by a factor of 3.25 to adjust for decrease in activity due to storage; ND = No Activity Detected
Excerpt: as §1, §2, §3, §4, §5

[7] = system: Brevibacterium sp. HCU chnB1 monooxygenase; conditions: purified over-expressed enzyme; 1.25 mM substrate; pH 7.5; ND = No Activity Detected
Excerpt: as §1, §2, §3, §4, §5

O=C1CCCCC1=O [1,2-cyclohexanedione]
Specific Activity of Monooxygenase Enzymes Against Various Ketone Substrates, sp. phi1 chnB [1]: 0.083 µmol/min/mg
Specific Activity of Monooxygenase Enzymes Against Various Ketone Substrates, sp. CHX chnB [2]: 0.096 µmol/min/mg
Specific Activity of Monooxygenase Enzymes Against Various Ketone Substrates, sp. SE19 chnB [3]: 0.077 µmol/min/mg

O=C1CCCCCCCCCC1 [Cycloundecanone]
Specific Activity of Monooxygenase Enzymes Against Various Ketone Substrates, sp. CHX chnB [2]: 0.058 µmol/min/mg
Specific Activity of Monooxygenase Enzymes Against Various Ketone Substrates, sp. BP2 chnB [4]: 0.064 µmol/min/mg
Specific Activity of Monooxygenase Enzymes Against Various Ketone Substrates, sp. phi2 chnB [5]: 0.051 µmol/min/mg
Specific Activity of Monooxygenase Enzymes Against Various Ketone Substrates, sp. SE19 chnB [3]: 0.064 µmol/min/mg

CCCCCCCCCCCC(C)=O [2-tridecanone]
Specific Activity of Monooxygenase Enzymes Against Various Ketone Substrates, sp. phi1 chnB [1]: 0.160 µmol/min/mg
Specific Activity of Monooxygenase Enzymes Against Various Ketone Substrates, sp. CHX chnB [2]: 0.096 µmol/min/mg

CCCCCCC(=O)CCCCCC [dihexyl ketone]
Specific Activity of Monooxygenase Enzymes Against Various Ketone Substrates, sp. phi1 chnB [1]: 0.160 µmol/min/mg
Specific Activity of Monooxygenase Enzymes Against Various Ketone Substrates, sp. HCU chnB2 [6]: 0.270 µmol/min/mg

O=C1CC2CC[C@H]1C2 [Norcamphor]
Specific Activity of Monooxygenase Enzymes Against Various Ketone Substrates, sp. HCU chnB1 [7]: 0.410 µmol/min/mg

O=C1CCCCCCCCCCC1 [Cyclododecanone]
Specific Activity of Monooxygenase Enzymes Against Various Ketone Substrates, sp. CHX chnB [2]: 0.051 µmol/min/mg

O=C1CCCCC1c1ccccc1 (centres unmarked) [2-phenyl-cyclohexanone]
Specific Activity of Monooxygenase Enzymes Against Various Ketone Substrates, sp. phi2 chnB [5]: 0.730 µmol/min/mg

C[S+](C)[O-] [dimethyl sulfoxide]
Specific Activity of Monooxygenase Enzymes Against Various Ketone Substrates, sp. HCU chnB1 [7]: 0.230 µmol/min/mg

O=C1CCCCCCC1 [Cyclooctanone]
Specific Activity of Monooxygenase Enzymes Against Various Ketone Substrates, sp. CHX chnB [2]: 0.410 µmol/min/mg

O=C1CCCCCCCCC1 [Cyclodecanone]
Specific Activity of Monooxygenase Enzymes Against Various Ketone Substrates, sp. phi1 chnB [1]: 0.077 µmol/min/mg
Specific Activity of Monooxygenase Enzymes Against Various Ketone Substrates, sp. CHX chnB [2]: 0.160 µmol/min/mg
Specific Activity of Monooxygenase Enzymes Against Various Ketone Substrates, sp. SE19 chnB [3]: 0.320 µmol/min/mg

O=C1CCCC(=O)C1 [1,3-cyclohexanedione]
Specific Activity of Monooxygenase Enzymes Against Various Ketone Substrates, sp. CHX chnB [2]: 0.032 µmol/min/mg
